For three compounds, IC50 results are on record in PMC6271849, “Quantitative Analysis of the Flavonoid Glycosides and Terpene Trilactones in the Extract of Ginkgo biloba and Evaluation of Their Inhibitory Activity towards Fibril Formation of β-Amyloid Peptide” (Molecules, 2014).

SMILES strings stand for the structures.

For this assay, the target named is T1, amyloid β peptide (Aβ42) (Homo sapiens, UniProt P05067).
T1 construct: gene APP; Aβ42 peptide
T1 sequence (P05067 672-713 limits assumed): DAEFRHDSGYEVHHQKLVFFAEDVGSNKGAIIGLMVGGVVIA
Briefly: biochemical.
As usually defined, the IC50 is the concentration that gives 50% inhibition. Higher therefore signals weaker potency. As to `C[C@@H]1O[C@@H](OC[C@H]2O[C@@H](Oc3c(-c4ccc(O)c(O)c4)oc4cc(O)cc(O)c4c3=O)[C@H](O)[C@@H](O)[C@@H]2O)[C@H](O)[C@H](O)[C@H]1O` [compound 1, quercetin 3-O-β-D-rutinoside], the IC50 worked out at 33 ± 4.84 µM. In the case of `C[C@@H]1O[C@@H](Oc2c(-c3ccc(O)c(O)c3)oc3cc(O)cc(O)c3c2=O)[C@H](O[C@@H]2O[C@H](CO)[C@@H](O)[C@H](O)[C@H]2O)[C@H](O)[C@H]1O` [compound 2, quercetin 3-O-α-L-(β-D-glucopyranosyl)-(1,2)-rhamnopyranoside] it was 67.1 ± 11.7 µM; in that of `C[C@@H]1O[C@@H](Oc2c(-c3ccc(O)c(O)c3)oc3cc(O)cc(O)c3c2=O)[C@H](O[C@@H]2O[C@H](COC(=O)/C=C/c3ccc(O)cc3)[C@@H](O)[C@H](O)[C@H]2O)[C@H](O)[C@H]1O` [compound 6, quercetin 3-O-α-(6′′′-p-coumaroylglucopyranosyl-β-1,2-rhamnopyranoside)], 32.6 ± 4.83 µM.
